Source: patent US20230036911A1, “CULTURE SYSTEMS FOR THE EFFICIENT PRODUCTION OF GENE TRANSFER VECTORS” (Greffex, Inc., priority 2019, published 2023)

Key:
HEK293-type cells [1] = assay: Production (encapsidation) of the fully deleted helper virus independent Adenoviral vector fdhiAdGFP, read out as GFP-expressing cells after infection with supernatant; format: cell-based, human
Source text: In the present example, the use of ascorbic acid composition exemplified by its used for the production of DNA virus, such as, but not limited to, a fully deleted helper virus independent Adenoviral vector. The vector production systems is comprised of three components (as exemplified in FIG. 1): (i) The GreVac module is packaged into the vector. It carries an expression cassette for a transgene, such as the green fluorescent protein, (cytomegalovirus immediate early promotor/enhancer / transgene / human growth hormone poly-adenylation sequence) flanked by ITRs and Ψ sequences, and is called fdhiAdGFP. […]
HEK293-type cells were taken from the working cell bank and were cultured in an appropriate tissue culture vessel in an appropriate tissue culture medium both known by someone experienced in the art. […] Cell growth and density were monitored daily by light microscopy. […]
To measure the efficiency of encapsidation, HEK293-type cells in culture were infected with defined volumes of the Adenoviral vector containing supernatants. […] Then they were harvested and examined for the extent of green fluorescence on a fluorescence activate cell analyzer (Beckman-Coulter Cytomics FC500) as an indicator of the number of infectious adenoviral particles released from the production cells.

HEK293-type cells [2] = assay: Cellular DNA content by Vybrant staining and flow cytometry of cultured HEK293-type cells; format: cell-based, human; details: ascorbic acid 5 µg/ml, 24 hrs of culture, versus culture in the absence of ascorbic acid
Experimental: HEK293-type cells were taken from a working cell bank and were cultured in an appropriate tissue culture vessel in an appropriate tissue culture medium both known by a person skilled in the art. They were expanded at appropriate conditions, such 37° C., 5% CO2. Cell growth and density was monitored daily. One day after cellular confluency was reached the cells were harvested by methods known by a person skilled in the art. The harvested HEK293-type cells were diluted in tissue culture medium and reseeded in an appropriate tissue culture vessel in and appropriate tissue culture medium. To one set of HEK293-type cells ascorbic acid was added at a final concentration of 5 µg/ml. After 24 hrs of culture, the cells were harvested and stained for DNA content by Vybrant (Invitrogen) following the manufacturers protocols. The cells were analyzed by fluorescence on a fluorescence activate cell analyzer (Beckman-Coulter Cytomics FC500).

Structure (SMILES): O=C1O[C@H]([C@@H](O)CO)C(O)=C1O [ascorbic acid]
- rate of encapsidation of a gene transfer vector (HEK293-type cells [1]; ascorbic acid added to production cells, conclusion from the studies): increased the rate of encapsidation
- number of infected (GFP-expressing) cells after infection with Adenoviral vector containing supernatant (HEK293-type cells [1]; production cells with ascorbic acid 5 µg/ml, 5 days of production, transduced cells read after 2 days, versus no ascorbic acid): significantly larger number of infected cells
- levels of DNA content in cells (HEK293-type cells [2]): increased levels of DNA
- percentage of cells in the S and G2 stages of the cell cycle (HEK293-type cells [2]): a larger percentage of cells had entered the S and G2 stages of the cell cycle
